The text below walks through data of PMC3558502, “Acaricide, Fungicide and Drug Interactions in Honey Bees (Apis mellifera)” (PLoS ONE, 2013).

Entries after “also recorded” stand apart in the source; their conditions may differ. Structures can show the parent of a compound that is named as a salt. Where two headings read alike, the source gives them in different places.

In one series the test system is Apis mellifera. The conditions noted are these: cited from earlier work.
For series [1], the system named is honey bees (Apis mellifera). Nature of the series: Lethal dose bioassay: topical sublethal pre-treatment (acaricide, fungicide or enzyme inhibitor), then topical acaricide dose series, 2009. The conditions noted are these: for interactive effect between pre-treatment and acaricide toxicity (in words): 2009 topical pre-treatments, partner named in the value; for LD10: from fitted dose-response lines, control pre-treatment, 2009 (Table S1). Here is the method: Bees were first treated with a sublethal dose of either an acaricide, a fungicide, an antimicrobial drug, or an enzyme inhibitor. Bees were then treated with a range of lethal doses of an acaricide to estimate the dose-response curve. […] We tested 25 of the 6×6 possible acaricide-acaricide combinations, 24 of the 6×5 fungicide-acaricide combinations, 15 of the 6×3 antimicrobial-acaricide combinations and 9 of the 6×3 enzyme inhibitor-acaricide combinations. […] The fungicides propiconazole, fenbuconazole, metconazole and myclobutanil were tested in combination with a single acaricide, tau-fluvalinate.
(§1) Frames of late-stage brood were collected from these colonies and placed in a dark, humid incubator (Darwin Chambers Co., St. Louis, MO, model H024) at 34°C. Newly emerged adults were brushed from frames daily into screened wooden cages (21×14×12 cm) and weighed as a group to estimate the number of bees. Each cohort of 200–800 bees was provisioned with 1∶1 (w/w) granulated sugar dissolved in water and held for 3–4 days in the incubator.
Each treatment series was conducted using 3–4 day-old adult worker bees divided into 8–13 subgroups of 20 bees each. Bees were narcotized with carbon dioxide and each subgroup was placed in a separate wax-coated paper cup (177 cm^3; Solo S306, Highland Park, IL) covered with cotton cheesecloth and secured with two rubber bands. A maximum sublethal pre-treatment of an acaricide, fungicide, enzyme inhibitor, or solvent control, was then applied to bees in all subgroups. […] Sublethal doses used as pre-treatment for acaricides were determined in preliminary bioassays or previous studies and corresponded to doses less than or near the LD10 values determined in the current experiment. […] All doses were delivered topically in 1 µl of acetone and applied to the thoracic notum using a 50 µl syringe fitted in a repeating dispenser (Hamilton PB-600, Reno, NV). A control pre-treatment consisting of 1 µl of pure acetone was also included.
(§2) Groups of pre-treated bees were allowed to recover for 1 h to minimize mortality due to extended carbon dioxide anaesthetization. Each subgroup of approximately 20 bees, of the 8–13 dose-groups in the bioassay, was then anaesthetized again and treated topically with either an acetone solvent control or one of a range of 7–12 acaricide doses, including doses eliciting 0% and 100% mortality, and at least three doses causing intermediate mortality. After treatment sucrose water was provided to groups of treated bees through a punctured 1.5 ml microcentrifuge tube following dosing, and bees were returned to the 34°C incubator. […] Immobile bees were scored as dead. […] At least three replicate treatment series were performed for each combination of pre-treatment and acaricide. Separately diluted acaricide dose series and bees taken from different colonies were used for each replicate treatment.
(§3) Lines were fitted to dose-mortality data on a log-probit scale for each pretreatment-acaricide combination using ‘glm’ in the R statistical package. […] Interactive effects between acaricides and the various pre-treatments were determined with pairwise tests comparing the dose-response lines for bees receiving pre-treatments with bees receiving a control pre-treatment using a test analogous to ANCOVA [26]. The full model, which includes the dose of acaricide as a covariate, pre-treatment as a categorical factor and the interaction between acaricide dose and pre-treatment, was compared with two simplified models (Figure 3). A process of model simplification was undertaken in which the explanatory power of model terms was assessed by reference to the likelihood ratio [38]. The first simplified model lacks the interaction term and tests the interaction between pre-treatment and acaricide dose, essentially testing for differences in the slope of the two dose-response lines (also known as a test of the “hypothesis of parallelism” [26]).

For series [2], the system named is honey bees (Apis mellifera). The experiment in a line: Lethal dose bioassay: tau-fluvalinate after PBO or SBI fungicide pre-treatment at 0.1, 1 or 10 nmol per bee, 2010. In kind it is in vivo. The text has this:
Acetone was also applied as a pre-treatment control.
Immobile bees were scored as dead.

Series [3] relates to honey bees (Apis mellifera). Conditions: study conducted in 2008 using an identical protocol; cited from earlier work.
The test system of series [4] is honey bees (Apis mellifera). Nature of the series: Lethal dose bioassay: antimicrobial drugs fed in sucrose syrup, then topical acaricide dose series, 2010. The conditions noted are these: for interactive effect between antimicrobial pre-treatment and acaricide toxicity (in words): 2010 oral pre-treatments, partner named in the value. As for the experimental part:
as §1, §2, §3

The next series deals with honey bees. Nature of the series: Estimated daily exposure and margin of safety of acaricide formulations. On the set-up: species or system Apis mellifera. The conditions noted are these: LD10 divided by estimated daily dose. An excerpt: High sublethal doses were deliberately chosen as pre-treatments to make the magnitude of any interactive effect between the pre-treatment and acaricide as large as possible. However, to determine the hazard posed by acaricide interactions in bee hives, the actual exposure bees receive when treated with formulated acaricides must be considered. […] The LD10 can be determined from the fitted dose response lines (Table S1). The daily dose can be estimated by first determining the amount of active ingredient present in each acaricide formulation, correcting this value by the amount of active ingredient available for uptake by the bees (e.g. 10% of the total acaricide content in strip formulations is taken up by bees, [50]) and dividing this quantity by the number of days the acaricide formulation is present in the hive. The estimated daily dose calculated in this way can be validated using published pesticide residue data, [51].

The mark [5] stands for this setting: tau-fluvalinate topical dose series after acetone control pre-treatment.

For `O=C(O)C(=O)O` [oxalic acid], the LD10 in the series with Apis mellifera is 176.7c µg/bee.
As to `CC(C)[C@@H](Nc1ccc(C(F)(F)F)cc1Cl)C(=O)OC(C#N)c1cccc(Oc2ccccc2)c1` (stereo partly shown) [tau-fluvalinate], the “LD50 of the acaricide” value is 19.8 µg per bee in series [1] (2009, topical, adult workers, pre-treatment: control, 1 µl acetone) and 9.2 µg per bee in series [4] (2010, topical acaricide, bees fed control 1:1 sucrose syrup). Moreover, the “increase in toxicity of tau-fluvalinate” value in series [1] (2009 experiments, prochloraz pre-treatment) is around 2000 fold; in series [1] (amitraz pre-treatment), 5 fold; in series [1] (fenpyroximate pre-treatment), 8 fold; in series [2] (pre-treated with any of the 5 fungicides or PBO at the 1 nmol dose) it was 1.4 to 2.3 fold; in series [2] (pre-treated with any of the 5 fungicides or PBO at the 10 nmol dose), 12 to 74 fold. The “interactive effect between pre-treatment and acaricide toxicity (in words)” value in series [1] was “tau-fluvalinate toxicity was transitively increased when thymol was applied as a pre-treatment; also recorded: chlorothalonil increased the toxicity of both thymol and tau-fluvalinate; also recorded: Pyraclostrobin and boscalid applied together in a blend like Pristine moderately increased the toxicity of tau-fluvalinate”. For the same molecule, the LD10 in series [1] came to 3.08 µg/bee. Also, the “interactive effect between SBI fungicide pre-treatment and tau-fluvalinate toxicity (in words)” value in series [2] (2010, SBI fungicides) was “an antagonistic interaction was observed at the lowest fungicide doses (0.1 nmol or approximately 0.03 µg per bee)”. Moreover, the LD50 for tau-fluvalinate in series [2] (2010, topical, pre-treatment: control (acetone)) was 9.0 µg per bee; in series [3] it was 6.75 µg per bee. The “interaction between tau-fluvalinate and PBO” value in series [2] (PBO 10 nmol dose level) stood at 5.8 fold. The “dose-response line intercept ± SE” value in series [2] (setting [5]) was -2.72 ± 0.24. In addition, the “dose-response line slope ± SE” value in series [2] (setting [5]) is recorded as 2.85 ± 0.26. The “interactive effect between antimicrobial pre-treatment and acaricide toxicity (in words)” value in series [4] was “pretreating bees with oxytetracycline had no significant effect on the LD50 of tau-fluvalinate”.
As to `O=C(Nc1ccccc1-c1ccc(Cl)cc1)c1cccnc1Cl` [boscalid], the “interactive effect between pre-treatment and acaricide toxicity (in words)” value in series [1] is recorded as “did not interact with any acaricide tested”.
As to `Cc1ccc(C(C)C)c(O)c1` [thymol], the “margin of safety of acaricide formulations” value with honey bees was 2.0 to 7.8 fold.
In the case of `Cc1ccc(/N=C/N(C)/C=N/c2ccc(C)cc2C)c(C)c1` [amitraz], in series [1], the “interactive effect between pre-treatment and acaricide toxicity (in words)” value is given as “toxicity of amitraz was unchanged when bees were pre-treated with tau-fluvalinate; also recorded: oxalic acid pre-treatment reduced the toxicity of amitraz nearly four-fold”; the LD10 is on record as 0.92 µg/bee. In the series on honey bees, the “margin of safety of acaricide formulations” value is 2.0 to 7.8 fold. Also, the “interactive effect between antimicrobial pre-treatment and acaricide toxicity (in words)” value in series [4] is given as “this combination had no effect on acute mortality”.
Turning to `CC[C@H]1OC(=O)C[C@@H](O)[C@H](C)[C@@H](O[C@@H]2O[C@H](C)[C@@H](O[C@H]3C[C@@](C)(O)[C@@H](O)[C@H](C)O3)[C@H](N(C)C)[C@H]2O)[C@@H](CC=O)C[C@@H](C)C(=O)/C=C/C(C)=C/[C@@H]1CO[C@@H]1O[C@H](C)[C@@H](O)[C@@H](OC)[C@H]1OC` [tylosin], the “interactive effect between antimicrobial pre-treatment and acaricide toxicity (in words)” value in series [4] is reported as “did not interact with any acaricide tested”.
Take `CCOC(=O)/C=C\C(=O)OCC` [DEM, diethyl maleate]: the “interactive effect between pre-treatment and acaricide toxicity (in words)” value in series [1] is recorded as “did not interact with any acaricide tested”.
